How the values were obtained:
Format in all cases: biochemical
JAK1 = target: T1, JAK1 (Homo sapiens, UniProt P23458); experiment: Z'-LYTE kinase assay JAK1
T1 construct: 5 μl of catalytic domain recombinant Kinase enzyme+Tyr peptide substrate (Invitrogen, CA); purchased Invitrogen
Method: (§1) JAK and TYK2 tyrosine phosphorylation activity is measured using the Z′-LYTE™ Technology developed by Invitrogen Corporation (Carlsbad, Calif.). For JAK1, JAK2 and JAK3 the Z′-LYTE™ Kinase Assay Kit-Tyr6 Peptide (part number PV4122) was used. For TYK2 the Z′-LYTE™ Kinase Assay Kit-Tyr6 Peptide (part number PV3192) was used. The Z′-LYTE™ biochemical assay employs a fluorescence resonance energy transfer (FRET) coupled-enzyme format and is based on the differential sensitivity of phosphorylated and non-phosphorylated peptides to proteolitic cleavage. The assay uses a synthetic peptide substrate that is labelled with a donor fluorophore (coumarin) and an acceptor fluorophore (fluorescein) that make up a FRET pair. In the primary reaction (the Kinase Reaction), the kinase transfers the γ-phosphate of ATP to a single tyrosine residue on the substrate, while the presence of a kinase inhibitor in the primary reaction suppresses phosphorylation. In the secondary reaction (the Development Reaction), a site-specific protease (the Development Reagent) is added. The development buffer quenches the Kinase Reaction, while the protease recognizes and cleaves non-phosphorylated Z′-LYTE™ peptide substrate. Cleavage disrupts FRET between the donor and acceptor fluorophores on the non-phosphoryleted substrate, while uncleaved, phosphorylated substrate maintains FRET.
(§2) To test the ability of candidate molecules to inhibit JAK tyrosine phosphorylation activity, molecules are reconstituted in 100% DMSO and serially diluted 1:10 in polypropylene v-bottom microtiter plates. The candidate molecules are then diluted 1:25 into kinase buffer and 2.5 μl transferred into duplicate wells of a 384 well low volume black microtiter assay plate (Corning, USA). The final DMSO concentration in the assay is 1%. The kinase reaction contains 2.5 μl of a candidate molecule, 5 μl of catalytic domain recombinant Kinase enzyme+Tyr peptide substrate (Invitrogen, CA) and 2.5 μl ATP (Invitrogen, CA). The kinase reaction is allowed to procede for 1 hour at room temperature. The protease reaction is initiated by the addition of 5 μl Development Reagent (Invitrogen, CA). After 1 hour incubation at room temperature the fluorescence is measured using a FlexStation plate reader (Molecular Devices, Sunnyvale, Calif.).

JAK2 = target: T2, JAK2 (Homo sapiens, UniProt O60674); experiment: Z'-LYTE kinase assay JAK2
T2 construct: 5 μl of catalytic domain recombinant Kinase enzyme+Tyr peptide substrate (Invitrogen, CA); purchased Invitrogen
T2 sequence (O60674 849-1124 limits assumed): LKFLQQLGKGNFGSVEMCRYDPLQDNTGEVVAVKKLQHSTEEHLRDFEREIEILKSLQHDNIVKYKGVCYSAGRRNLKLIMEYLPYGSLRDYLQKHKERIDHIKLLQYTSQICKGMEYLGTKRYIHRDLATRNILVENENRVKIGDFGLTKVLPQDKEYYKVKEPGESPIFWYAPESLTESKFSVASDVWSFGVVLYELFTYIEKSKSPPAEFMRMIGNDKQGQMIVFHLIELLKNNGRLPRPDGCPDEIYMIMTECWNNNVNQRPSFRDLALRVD
Method: as §1, §2

JAK3 = target: T3, JAK3 (Homo sapiens, UniProt P52333); experiment: Z'-LYTE kinase assay JAK3
T3 construct: 5 μl of catalytic domain recombinant Kinase enzyme+Tyr peptide substrate (Invitrogen, CA); purchased Invitrogen
T3 sequence (P52333 822-1111 limits assumed): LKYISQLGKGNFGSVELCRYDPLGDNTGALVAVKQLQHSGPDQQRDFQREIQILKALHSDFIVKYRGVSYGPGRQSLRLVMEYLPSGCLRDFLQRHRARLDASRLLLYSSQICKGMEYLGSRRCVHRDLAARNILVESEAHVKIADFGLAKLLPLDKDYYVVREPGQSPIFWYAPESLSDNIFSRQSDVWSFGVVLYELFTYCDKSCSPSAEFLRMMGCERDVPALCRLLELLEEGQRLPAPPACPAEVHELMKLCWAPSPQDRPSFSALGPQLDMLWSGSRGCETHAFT
Method: as §1, §2

T1 sequence (P23458 875-1153 limits assumed): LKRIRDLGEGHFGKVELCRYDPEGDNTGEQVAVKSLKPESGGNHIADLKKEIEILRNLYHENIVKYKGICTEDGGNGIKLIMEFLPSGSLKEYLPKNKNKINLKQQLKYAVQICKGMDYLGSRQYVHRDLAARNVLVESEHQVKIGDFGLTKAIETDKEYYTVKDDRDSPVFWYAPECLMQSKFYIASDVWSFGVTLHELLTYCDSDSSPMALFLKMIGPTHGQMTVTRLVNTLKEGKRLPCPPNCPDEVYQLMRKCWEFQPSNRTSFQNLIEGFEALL

IC50 (JAK1) | IC50 (JAK2) | IC50 (JAK3) | SMILES
> 1000 nM | > 1000 nM | > 1000 nM | CN(C)C(=O)c1ccc(Nc2cc(NCc3ccccc3)c(C(=O)N(C)C)cn2)cc1 [Example 30, 4-(benzylamino)-6-(4-(dimethylcarbamoyl)phenylamino)-N,N-dimethylnicotinamide]
> 1000 nM | > 1000 nM | 100 to 1000 nM | COc1ccc(Nc2cc(NCC3CCCC3)c(C(N)=O)cn2)cc1 [Example 32, 4-(cyclopentylmethylamino)-6-(4-methoxyphenylamino)nicotinamide]
> 1000 nM | > 1000 nM | > 1000 nM | COc1ccc(Nc2cc(Nc3ccc(C)cc3)c(C(N)=O)cn2)cc1 [Example 33, 6-(4-methoxyphenylamino)-4-(p-tolylamino)nicotinamide]
> 1000 nM | > 1000 nM | > 1000 nM | COc1ccc(Nc2cc(Nc3ccc(OC)cc3)c(C(N)=O)cn2)cc1 [Example 34, 4,6-bis(4-methoxyphenylamino)nicotinamide]
> 1000 nM | > 1000 nM | > 1000 nM | COc1ccc(Nc2cc(NCC3CCN(C(C)=O)CC3)c(C(N)=O)cn2)cc1 [Example 35, 4-((1-acetylpiperidin-4-yl)methylamino)-6-(4-methoxyphenylamino)nicotinamide]
> 1000 nM | > 1000 nM | > 1000 nM | COc1ccc(Nc2cc(N[C@H]3CCCN(C(C)=O)C3)c(C(N)=O)cn2)cc1 [Example 36, (S)-4-(1-acetylpiperidin-3-ylamino)-6-(4-methoxyphenylamino)nicotinamide]
> 1000 nM | > 1000 nM | > 1000 nM | COc1ccc(Nc2cc(N[C@@H]3CCCN(C(C)=O)C3)c(C(N)=O)cn2)cc1 [Example 37, (R)-4-(1-acetylpiperidin-3-ylamino)-6-(4-methoxyphenylamino)nicotinamide]
100 to 1000 nM | 100 to 1000 nM | 10 to 100 nM | NC(=O)c1cnc(Nc2ccc(C(=O)N3CCOCC3)cc2)cc1NCC1CCCC1 [Example 42, 4-(cyclopentylmethylamino)-6-(4-(morpholine-4-carbonyl)phenylamino)nicotinamide]
> 1000 nM | > 1000 nM | 100 to 1000 nM | CC(=O)N1CCC(CNc2cc(Nc3ccc(C(=O)N4CCCC4)cc3)ncc2C(N)=O)CC1 [Example 43, 4-((1-acetylpiperidin-4-yl)methylamino)-6-(4-(pyrrolidine-1-carbonyl)phenylamino)nicotinamide]
> 1000 nM | > 1000 nM | > 1000 nM | CC(=O)N1CCC(CNc2cc(Nc3ccc(C(=O)N4CCOCC4)cc3)ncc2C(N)=O)CC1 [Example 44, 4-((1-acetylpiperidin-4-yl)methylamino)-6-(4-(morpholine-4-carbonyl)phenylamino)nicotinamide]
> 1000 nM | > 1000 nM | 100 to 1000 nM | NC(=O)c1cnc(Nc2ccc(S(=O)(=O)N3CCC3)cc2)cc1NCc1ccccc1 [Example 47, 6-(4-(azetidin-1-ylsulfonyl)phenylamino)-4-(benzylamino)nicotinamide]
100 to 1000 nM | 100 to 1000 nM | 10 to 100 nM | NC(=O)c1cnc(Nc2ccc(C(=O)N3CCC3)cc2)cc1NCC1CCCC1 [Example 48, 6-(4-(azetidine-1-carbonyl)phenylamino)-4-(cyclopentylmethylamino)nicotinamide]
> 1000 nM | > 1000 nM | 100 to 1000 nM | NC(=O)c1cnc(Nc2ccc(S(=O)(=O)N3CCC3)cc2)cc1NCC1CCCC1 [Example 49, 6-(4-(azetidin-1-ylsulfonyl)phenylamino)-4-(cyclopentylmethylamino)nicotinamide]
> 1000 nM | > 1000 nM | > 1000 nM | CC(=O)N1CCC(CNc2cc(Nc3ccc(C(=O)N4CCC4)cc3)ncc2C(N)=O)CC1 [Example 50, 4-((1-acetylpiperidin-4-yl)methylamino)-6-(4-(azetidine-1-carbonyl)phenylamino)nicotinamide]
> 1000 nM | > 1000 nM | 100 to 1000 nM | COCC(=O)N1CCC[C@@H](CNc2cc(Nc3ccc(OC)cc3)ncc2C(N)=O)C1 [Example 51, (S)-4-((1-(2-methoxyacetyl)piperidin-3-yl)methylamino)-6-(4-methoxyphenylamino)nicotinamide]
> 1000 nM | > 1000 nM | 100 to 1000 nM | COC(=O)N1CCC[C@@H](CNc2cc(Nc3ccc(OC)cc3)ncc2C(N)=O)C1 [Example 52, (S)-methyl 3-((5-carbamoyl-2-(4-methoxyphenylamino)pyridin-4-ylamino)methyl)piperidine-1-carboxylate]
> 1000 nM | > 1000 nM | 100 to 1000 nM | COc1ccc(Nc2cc(NC[C@@H]3CCCN(C(=O)N(C)C)C3)c(C(N)=O)cn2)cc1 [Example 53, (S)-4-((1-(dimethylcarbamoyl)piperidin-3-yl)methylamino)-6-(4-methoxyphenylamino)nicotinamide]
> 1000 nM | 100 to 1000 nM | 10 to 100 nM | COc1ccc(Nc2cc(NC[C@H]3CCCN(C(C)=O)C3)c(C(N)=O)cn2)cc1 [Example 54]
> 1000 nM | > 1000 nM | 10 to 100 nM | COCC(=O)N1CCC[C@H](CNc2cc(Nc3ccc(OC)cc3)ncc2C(N)=O)C1 [Example 55, (R)-4-((1-(2-methoxyacetyl)piperidin-3-yl)methylamino)-6-(4-methoxyphenylamino)nicotinamide]
> 1000 nM | > 1000 nM | 100 to 1000 nM | COC(=O)N1CCC[C@H](CNc2cc(Nc3ccc(OC)cc3)ncc2C(N)=O)C1 [Example 56, (R)-methyl 3-((5-carbamoyl-2-(4-methoxyphenylamino)pyridin-4-ylamino)methyl)piperidine-1-carboxylate]
> 1000 nM | 100 to 1000 nM | 10 to 100 nM | COc1ccc(Nc2cc(NC[C@H]3CCCN(S(C)(=O)=O)C3)c(C(N)=O)cn2)cc1 [Example 57, (R)-6-(4-methoxyphenylamino)-4-((1-(methylsulfonyl)piperidin-3-yl)methylamino)nicotinamide]
> 1000 nM | > 1000 nM | 10 to 100 nM | CN1C(=O)COc2ccc(Nc3cc(NCc4ccccc4)c(C(N)=O)cn3)cc21 [Example 85, 4-(benzylamino)-6-(4-methyl-3-oxo-3,4-dihydro-2H-benzo[b][1,4]oxazin-6-ylamino)nicotinamide]
> 1000 nM | > 1000 nM | 10 to 100 nM | NC(=O)c1cnc(Nc2ccc3ncccc3c2)cc1NCc1ccccc1 [Example 86, 4-(benzylamino)-6-(quinolin-6-ylamino)nicotinamide]
> 1000 nM | > 1000 nM | 100 to 1000 nM | NC(=O)c1cnc(Nc2ccc3cccnc3c2)cc1NCc1ccccc1 [Example 87, 4-(benzylamino)-6-(quinolin-7-ylamino)nicotinamide]
> 1000 nM | > 1000 nM | 10 to 100 nM | NC(=O)c1cnc(Nc2ccc3cnccc3c2)cc1NCc1ccccc1 [Example 88, 4-(benzylamino)-6-(isoquinolin-6-ylamino)nicotinamide]
> 1000 nM | > 1000 nM | 100 to 1000 nM | NC(=O)c1cnc(Nc2ccc3ccncc3c2)cc1NCc1ccccc1 [Example 89, 4-(benzylamino)-6-(isoquinolin-7-ylamino)nicotinamide]
> 1000 nM | > 1000 nM | 10 to 100 nM | NC(=O)c1cnc(Nc2ccc3ncsc3c2)cc1NCc1ccccc1 [Example 90, 6-(benzo[d]thiazol-6-ylamino)-4-(benzylamino)nicotinamide]
100 to 1000 nM | 100 to 1000 nM | 10 to 100 nM | CN(C)C(=O)c1cccc(Nc2cc(NCC3CCCC3)c(C(N)=O)cn2)c1 [Example 95, 4-(cyclopentylmethylamino)-6-(3-(dimethylcarbamoyl)phenylamino)nicotinamide]
100 to 1000 nM | 100 to 1000 nM | 10 to 100 nM | CN(C)C(=O)c1ccc(Nc2cc(NCC3CCCC3)c(C(N)=O)cn2)cc1 [Example 96, 4-(cyclopentylmethylamino)-6-(4-(dimethylcarbamoyl)phenylamino)nicotinamide]
> 1000 nM | > 1000 nM | 100 to 1000 nM | CN(C)S(=O)(=O)c1ccc(Nc2cc(NCC3CCCC3)c(C(N)=O)cn2)cc1 [Example 97, 4-(cyclopentylmethylamino)-6-(4-(N,N-dimethylsulfamoyl)phenylamino)nicotinamide]
